Assay results taken from patent US20040087498A1, “Modified factor VII” (Novo Nordisk Health Care AG, priority 1991, published 2004).

System: tissue factor (TF) and activated Factor VII (FVIIa) mediation of vascular lesion formation
Experiment: Vascular lesion formation after carotid endarterectomy in baboons
Assay type: in vivo
Settings: baboon
Protocol: Measurements were performed for vascular lesion formation on day 30. The results in 5 treated animals were compared with the findings in 5 concurrent vehicle buffer-infused controls.
Under halothane anesthesia and sterile operating conditions, animals labeled with autologous ^111In-platelets received intravenous infusions of DEGR-FVIIa using the tether system for continuous intravenous administration (initial bolus injection of 1 mg/kg followed by continuous intravenous infusion of 50 μg/kg/hr. The animals received surgical carotid endarterectomy, bilateral brachial artery or bilateral femoral artery Fogarty balloon catheter angioplasties.
The DEGR-FVIIa was administered for 7 or 30 days by continuous infusions via venous catheter using the tether system. Thirty days after surgery the animals were anesthetized with halothane and underwent in situ pressure-perfusion fixation with 4% paraformaldehyde containing 0.1% glutaraldeyde for 30 min. […]
Carotid endarterectomy was performed through a midline neck incision using the technique of Hanson et al., Hypertension 18:I170-I-176 (1991) and Krupski et al., Circulation 84:1749-1757 (1991), incorporated herein by reference. […] The endarterectomy was then performed beginning 1 cm from the divided end of the everted vessel segment and continued for a measured distance of 1 cm. […]

Substance: DEGR-Factor VIIa: Recombinant human Factor VIIa with its active site derivatized by Dansyl-L-Glu-Gly-Arg-chloromethyl Ketone (DEGRck)
- intimal area (treated for 30 days, examined at 30 days): A similar result
- intimal area (treated for seven days, studied at 30 days, versus control): significantly decreased
